Earlier results, collected in US20100003344A1, “Cosmetic Skincare Method Employing Mechanical Stresses” (L'OREAL, priority 2005, published 2010).
Read-outs that look alike come from different tables or passages of the source. Ends that are not written are not given here.

What was measured:
β1 integrins [1] = details: applied to the skin ex vivo
beta1 integrins = details: stated as known
β1 integrins [2] = details: cells in culture
β1 integrins [3] = test system: β1 integrins
[4] = test system: α2, α3, α6, αv and β1 integrins; details: keratinocytes in culture or in reconstructed skins

GPQGPQ [COLLAXYL]
expression of β1 integrins (β1 integrins [1]): stimulates the expression of β1 integrins

KLDAPT [VINCI 02]
number of mechanoreceptors (beta1 integrins) on the surface of the keratinocytes (beta1 integrins): increase the number of mechanoreceptors
expression of β1 integrins (β1 integrins [2]): stimulates the expression of β1 integrins

RDFTKATNIRLRFLR [VINCI 01]
expression of β1 integrins (β1 integrins [3]): stimulates the expression of β1 integrins

copper gluconate
expression of integrins, in particular the α2, α3, α6, αv and β1 integrins [4]: capable of increasing the expression of integrins

manganese gluconate
number of mechanoreceptors (beta1 integrins) on the surface of the keratinocytes (beta1 integrins): increase the number of mechanoreceptors
expression of integrins, in particular the α2, α3, α6, αv and β1 integrins [4]: capable of increasing the expression of integrins

zinc gluconate
expression of integrins, in particular the α2, α3, α6, αv and β1 integrins [4]: capable of increasing the expression of integrins
